Assay [1] concerns LPS-induced TNFα in monocytes. Nature of the assay: Monocytes assay: LPS-triggered TNFα (ELISA). It is filed as cell-based, human. To be noted: LPS 200 ng/mL, supernatant after 4 h. The method in brief:
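Supernatant TNFα was quantified by luminol-based sandwich ELISA after 4 h stimulation with LPS (200 ng/mL final). The cells were CD14-bead-purified monocytes from human PBMCs, 100 000 per well, exposed to 3-fold compound dilutions for 1 h at 37° C beforehand, with DMSO at 0.2%. Results are reported as percent inhibition.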

Assay [2] has as its system LPS triggered IL-10 secretion in monocytes. The experiment in a line: Monocytes assay: LPS-triggered IL-10 (ELISA). The assay is classed as cell-based, human. Particulars: LPS 200 ng/mL, supernatant after 4 h, maximal fold change vs LPS only. A digest of the protocol: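 Human CD14+ monocytes, magnetically isolated from buffy-coat PBMCs, were seeded at 100 000 cells/well and preincubated with compound for 1 h at 37° C (0.2% DMSO). LPS was then added at a final 200 ng/mL for 4 h. Supernatant IL-10 was quantified by chemiluminescent sandwich ELISA against a standard curve.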
A general note: ELISA stands for enzyme-linked immunosorbent assay.

The structures appear in SMILES notation.

In the case of `COc1cc(-c2cnc3cc(OC[C@H]4COCCO4)ccn23)cc2c1C(=O)N(CC(F)F)CC2` [compound 219, 2-(2,2-difluoroethyl)-6-[7-[[(2R)-1,4-dioxan-2-yl]methoxy]imidazo[1,2-a]pyridin-3-yl]-8-methoxy-3,4-dihydroisoquinolin-1-one], the EC50 in assay [1] (Homo sapiens, Monocyte, 4 h) was 100 to 1000 nM. In addition, in assay [2], the “IL-10 FCmax median” value was “+++ (>4.5)”.
The like results for `COc1cc(-c2cnc3cc(OCCN4CCOC[C@H]4C)ccn23)cc2c1C(=O)N(CC(F)(F)F)CC2` [compound 259, 8-methoxy-6-[7-[2-[(3R)-3-methylmorpholin-4-yl]ethoxy]imidazo[1,2-a]pyridin-3-yl]-2-(2,2,2-trifluoroethyl)-3,4-dihydroisoquinolin-1-one] were, in that order, 100 to 1000 nM and “+++ (>4.5)”.
As to `COc1cc(-c2cnc3cc(OCCCN4CCC5(CC4)CNC(=O)O5)ccn23)cc(OC(F)F)c1C(=O)NC1CC1` [Cpd 324, N-cyclopropyl-2-(difluoromethoxy)-6-methoxy-4-[7-[3-(2-oxo-1-oxa-3,8-diazaspiro[4.5]decan-8-yl)propoxy]imidazo[1,2-a]pyridin-3-yl]benzamide], the EC50 in assay [1] (Homo sapiens, Monocyte, 4 h) was in the range of 100 to 1000 nM. The “IL-10 FCmax median” value in assay [2] is listed as “++ (>1.5-4.5)”.
The matching figures for `COc1cc(-c2cnc3cc(OCC4(F)CN(C)C4)ccn23)cc2c1C(=O)N(CC(F)(F)F)CC2` [compound 252, 6-[7-[(3-fluoro-1-methyl-azetidin-3-yl)methoxy]imidazo[1,2-a]pyridin-3-yl]-8-methoxy-2-(2,2,2-trifluoroethyl)-3,4-dihydro isoquinolin-1-one]: 100 to 1000 nM and “+++ (>4.5)”.
The matching figures for `COc1cc(-c2cnc3cc(OCCCN4CCS(=O)(=O)CC4)ccn23)cc(OC(F)F)c1C(=O)NC1CC1` [Cpd 331, N-cyclopropyl-2-(difluoromethoxy)-4-[7-[3-(1,1-dioxo-1,4-thiazinan-4-yl)propoxy]imidazo[1,2-a]pyridin-3-yl]-6-methoxy-benzamide]: 0.1 to 100 nM and “+++ (>4.5)”.
The matching figures for `COc1cc(-c2cnc3cc(OCCCN4CCC4)ccn23)cc(OC(F)F)c1C(=O)NC1CC1` [compound 274, 4-[7-[3-(azetidin-1-yl)propoxy]imidazo[1,2-a]pyridin-3-yl]-N-cyclopropyl-2-(difluoromethoxy)-6-methoxy-benzamide]: 100 to 1000 nM and “++ (>1.5-4.5)”.
`CCOC(=O)C1(F)CCN(CCCOc2ccn3c(-c4cc(OC)c(C(=O)NC5CC5)c(OC(F)F)c4)cnc3c2)CC1` [Cpd 363, ethyl 1-[3-[3-[4-(cyclopropylcarbamoyl)-3-(difluoromethoxy)-5-methoxy-phenyl]imidazo[1,2-a]pyridin-7-yl]oxypropyl]-4-fluoro-piperidine-4-carboxylate] registered an EC50 in assay [1] (Homo sapiens, Monocyte, 4 h) of 0.1 to 100 nM. Also, the “IL-10 FCmax median” value in assay [2] is “+++ (>4.5)”.
The like results for `COc1cc(-c2cnc3cc(OCCN4CCN(C)CC4)ccn23)cc(OC(F)F)c1C(=O)NC1CC1` [compound 9, N-cyclopropyl-2-(difluoromethoxy)-6-methoxy-4-[7-[2-(4-methylpiperazin-1-yl)ethoxy]imidazo[1,2-a]pyridin-3-yl]benzamide] were, in that order, 0.1 to 100 nM and “+++ (>4.5)”.
The matching figures for `COc1cc(-c2cnc3cc(OCc4nncn4C)ccn23)cc(OC(F)F)c1C(=O)NC1CC1` [compound 227, N-cyclopropyl-2-(difluoromethoxy)-6-methoxy-4-[7-[(4-methyl-1,2,4-triazol-3-yl)methoxy]imidazo[1,2-a]pyridin-3-yl]benzamide]: 1000 to 5000 nM and “++ (>1.5-4.5)”.
The like results for `COc1cc(-c2cnc3cc(OCCN4CCOCC4)ccn23)cc2c1C(=O)N(CC(F)F)CC2` [compound 218, 2-(2,2-difluoroethyl)-8-methoxy-6-[7-(2-morpholinoethoxy)imidazo [1,2-a]pyridin-3-yl]-3,4-dihydroisoquinolin-1-one] were, in that order, 100 to 1000 nM and “+++ (>4.5)”.
As for `COc1cc(-c2cnc3cc(OCC(O)CN4CCOCC4)ccn23)cc(OC(F)F)c1C(=O)NC1CC1` (single isomer, unassigned) [Cpd 387, N-cyclopropyl-2-(difluoromethoxy)-4-[7-(2-hydroxy-3-morpholino-propoxy)imidazo[1,2-a]pyridin-3-yl]-6-methoxy-benzamide], the EC50 in assay [1] fell in the range of 0.1 to 100 nM. The “IL-10 FCmax median” value in assay [2] is “+++ (>4.5)”.
In assay [1] (Homo sapiens, Monocyte), `COc1cc(-c2cnc3cc(OCCN4C5CCC4COC5)ccn23)cc(OC(F)F)c1C(=O)NC1CC1` [compound 193, N-cyclopropyl-2-(difluoromethoxy)-6-methoxy-4-[7-[2-(3-oxa-8-azabicyclo [3.2.1]octan-8-yl)ethoxy]imidazo[1,2-a]pyridin-3-yl]benzamide] returned an EC50 of 0.1 to 100 nM. In addition, the “IL-10 FCmax median” value in assay [2] is “+++ (>4.5)”.
Turning to `COc1cc(-c2cnc3cc(OCCCN4CCCC4)ccn23)cc(OC(F)F)c1C(=O)NC1CC1` [compound 275, N-cyclopropyl-2-(difluoromethoxy)-6-methoxy-4-[7-(3-pyrrolidin-1-ylpropoxy)imidazo[1,2-a]pyridin-3-yl]benzamide], the 50% effective concentration (EC50) in assay [1] (Homo sapiens, Monocyte, 4 h) was in the range of 100 to 1000 nM. Besides, in assay [2], the “IL-10 FCmax median” value is “+++ (>4.5)”.
In assay [1] (Homo sapiens, Monocyte, 4 h), `CCOC(=O)C1(F)CCN(CCOc2ccn3c(-c4cc(OC)c(C(=O)NC5CC5)c(OC(F)F)c4)cnc3c2)CC1` [compound 390, ethyl 1-[2-[3-[4-(cyclopropylcarbamoyl)-3-(difluoromethoxy)-5-methoxy-phenyl]imidazo[1,2-a]pyridin-7-yl]oxyethyl]-4-fluoro-piperidine-4-carboxylate] yielded an EC50 of 0.1 to 100 nM. The “IL-10 FCmax median” value in assay [2] is reported as “+++ (>4.5)”.
On to `COc1cc(-c2cnc3cc(OCC(O)CN4CCCCC4)ccn23)cc(OC(F)F)c1C(=O)NC1CC1` (stereo not shown) [Cpd 321, N-cyclopropyl-2-(difluoromethoxy)-4-[7-[2-hydroxy-3-(1-piperidyl)propoxy]imidazo [1,2-a]pyridin-3-yl]-6-methoxy-benzamide], for which the EC50 in assay [1] (Homo sapiens, Monocyte, 4 h) was in the range of 0.1 to 100 nM. The “IL-10 FCmax median” value in assay [2] is given as “+++ (>4.5)”.
The like results for `CCOC(=O)C1(F)CCN(CC(O)COc2ccn3c(-c4cc(OC)c(C(=O)NC5CC5)c(OC(F)F)c4)cnc3c2)CC1` (stereo not shown) [compound 384, ethyl 1-[3-[3-[4-(cyclopropylcarbamoyl)-3-(difluoromethoxy)-5-methoxy-phenyl]imidazo[1,2-a]pyridin-7-yl]oxy-2-hydroxy-propyl]-4-fluoro-piperidine-4-carboxylate] were, in that order, 0.1 to 100 nM and “++ (>1.5-4.5)”.
The matching figures for `COc1cc(-c2cnc3cc(OCCCN4CCNCC4)ccn23)cc(OC(F)F)c1C(=O)NC1CC1` [compound 278, N-cyclopropyl-2-(difluoromethoxy)-6-methoxy-4-[7-(3-piperazin-1-ylpropoxy)imidazo[1,2-a]pyridin-3-yl]benzamide]: 100 to 1000 nM and “++ (>1.5-4.5)”.
The matching figures for `COc1cc(-c2cnc3cc(OCC4(C)CN(C)C4)ccn23)cc(OC(F)F)c1C(=O)NC1CC1` [compound 220, N-cyclopropyl-2-(difluoromethoxy)-4-[7-[(1,3-dimethylazetidin-3-yl)methoxy]imidazo[1,2-a]pyridin-3-yl]-6-methoxy-benzamide]: 100 to 1000 nM and “+++ (>4.5)”.
The molecule `COc1cc(-c2cnc3cc(OCCN4CC(F)(F)C4)ccn23)cc2c1C(=O)N(CC(F)(F)F)CC2` [Cpd 244, 6-[7-[2-(3,3-difluoroazetidin-1-yl)ethoxy]imidazo[1,2-a]pyridin-3-yl]-8-methoxy-2-(2,2,2-trifluoroethyl)-3,4-dihydroisoquinolin-1-one] gave a concentration for a half-maximal effect (EC50) in assay [1] (Homo sapiens, Monocyte, 4 h) of 100 to 1000 nM. Further, the “IL-10 FCmax median” value in assay [2] is listed as “+++ (>4.5)”.
Molecule `COc1cc(-c2cnc3cc(OCCN4CCN(C(C)C)CC4)ccn23)cc(OC(F)F)c1C(=O)NC1CC1` [compound 276, N-cyclopropyl-2-(difluoromethoxy)-4-[7-[2-(4-isopropylpiperazin-1-yl)ethoxy]imidazo[1,2-a]pyridin-3-yl]-6-methoxy-benzamide] registered a half-maximal effective concentration (EC50) in assay [1] (Homo sapiens, Monocyte, 4 h) of 100 to 1000 nM. Moreover, the “IL-10 FCmax median” value in assay [2] is on record as “++ (>1.5-4.5)”.
The like results for `COc1cc(-c2cnc3cc(OCC(O)CN4CCOCC4)ccn23)cc(OC(F)F)c1C(=O)NC1CC1` (stereo not shown) [Cpd 330, N-cyclopropyl-2-(difluoromethoxy)-4-[7-(2-hydroxy-3-morpholino-propoxy)imidazo[1,2-a]pyridin-3-yl]-6-methoxy-benzamide] were, in that order, 100 to 1000 nM and “+++ (>4.5)”.
The like results for `COc1cc(-c2cnc3cc(OCCCN4CC5(COC5)C4)ccn23)cc(OC(F)F)c1C(=O)NC1CC1` [compound 273, N-cyclopropyl-2-(difluoromethoxy)-6-methoxy-4-[7-[3-(2-oxa-6-azaspiro[3.3]heptan-6-yl)propoxy]imidazo[1,2-a]pyridin-3-yl]benzamide] were, in that order, 100 to 1000 nM and “++ (>1.5-4.5)”.
The matching figures for `COc1cc(-c2cnc3cc(OC[C@H]4COCCO4)ccn23)cc2c1C(=O)NCC2` [compound 242, 6-[7-[[(2R)-1,4-dioxan-2-yl]methoxy]imidazo[1,2-a]pyridin-3-yl]-8-methoxy-3,4-dihydro-2H-isoquinolin-1-one]: 100 to 1000 nM and “++ (>1.5-4.5)”.

By EC50 is commonly meant the concentration needed to bring the measured effect to its halfway point. Higher therefore signals lower potency in that assay.

These data come from US12264156B2, “Compounds and pharmaceutical compositions thereof for the treatment of diseases” (GALAPAGOS NV, priority 2018, dated 2025).
